{"source": "patent US10689390B2", "about": "“Tricyclic fused derivatives of 1-(cyclo)alkyl pyridin-2-one useful for the treatment of cancer” (JUBILANT BIOSYS LIMITED, priority 2015, dated 2020)", "key": {"BRD4-BD1": {"target": "BRD4-BD1 (Homo sapiens (Human), UniProt O60885)", "assay": "BRD4 AlphaLISA (Perkin Elmer)", "type": "binding", "conditions": "5 nM BRD4-BD1, 12 nM biotinylated substrate, read-out: BRD4_BD1 IC50_μM", "procedure": "BRD4 AlphaLISA (Perkin Elmer)\nCompounds were diluted by step-down dilution method (final concentration of DMSO was 1%) and added to the wells of a 384 well opti plate at desired concentrations. 5 nM BDR4-BD1 enzyme (produced in-house) and 12 nM of biotinylated substrate were added to the wells, covered and incubated at room temperature (RT) for 1 h. At the end of 1 h 250 ng of GSH acceptor beads were added to the well and incubated for 1 h at RT; then 500 ng of streptavidin donor beads were added and incubated again for 1 h at RT. Plates were read in a Pherastar reader at 680 nm excitation and 570 nm emission. As detailed above, compounds were tested for both BRD4 enzyme inhibitory activities and IC50 were determined."}, "AML cell line MV4-11": {"system": "AML cell line MV4-11", "assay": "Anticancer activity: Alamar Blue 3-day proliferation assay", "type": "cell-based", "conditions": "Homo sapiens, MV4-11 cells, 72 h incubation, read-out: MV4-11 EC50_μM", "procedure": "Anticancer Activity: Alamar Blue Assay\nThe impact of the compounds on cancer cell proliferation was determined using the AML cell line MV4-11 (ATCC) in a 3-day proliferation assay. MV4-11 cells were maintained in RPMI supplemented with 10% FBS at 37° C., 5% CO2. For compound testing, MV4-11 cells were plated in a 96-well black bottom plate at a density of 15,000 cells/well in 100 μL culture media and incubated at 37° C. overnight. Compound dilution series were prepared in DMSO via a 3-fold serial dilution from […]. The DMSO dilution series were then diluted with media, with the final compound concentrations added to the wells ranging from […]. […] The fluorescent readings from the Alamar Blue assay were normalized to the DMSO treated cells and analyzed using the GraphPad Prism software with sigmoidal curve fitting to obtain EC50."}}, "data": [{"compound": "CCOC(=O)CC1OC(C2CCCCC2)c2cc(OC)ccc2-c2cn(C)c(=O)cc21", "note": "(racemic) [Compound 2, ±Ethyl-2-(7-cyclohexyl-9-methoxy-2-methyl-3-oxo-2,3,5,7-tetrahydrobenzo[5,6]oxepino[4,3-c]pyridin-5-yl)acetate]", "values": [{"measurement": "IC50", "setting": "BRD4-BD1", "value": 10, "unit": "nM"}, {"measurement": "EC50", "setting": "AML cell line MV4-11", "value": 1, "unit": "nM"}]}, {"compound": "CCNC(=O)CC1N=C(c2ccc(Cl)cc2)c2cc(C(F)(F)F)ccc2-c2cn(C)c(=O)cc21", "note": "(racemic) [Compound 35, ±2-(7-(4-chlorophenyl)-2-methyl-3-oxo-9-(trifluoromethyl)-3,5-dihydro-2H-benzo[c]pyrido[3,4-e]azepin-5-yl)-N-ethylacetamide]", "values": [{"measurement": "IC50", "setting": "BRD4-BD1", "value": 77, "unit": "nM"}, {"measurement": "EC50", "setting": "AML cell line MV4-11", "value": 40, "unit": "nM"}]}, {"compound": "CCNC(=O)CC1OC(c2ccc(C)cn2)c2cc(OC)ccc2-c2cn(C)c(=O)cc21", "note": "(racemic) [Compound 11, ±2-(9-methoxy-2-methyl-7-(5-methylpyridin-2-yl)-3-oxo-2,3,5,7-tetrahydrobenzo[5,6]oxepino[4,3-c]pyridin-5-yl)-N-ethylacetamide]", "values": [{"measurement": "IC50", "setting": "BRD4-BD1", "value": 61, "unit": "nM"}, {"measurement": "EC50", "setting": "AML cell line MV4-11", "value": 175, "unit": "nM"}]}, {"compound": "CCNC(=O)CC1N=C(C2CCCCC2)c2cc(OC)ccc2-c2cn(C)c(=O)cc21", "note": "(racemic) [Compound 26, ±2-(7-cyclohexyl-9-methoxy-2-methyl-3-oxo-3,5-dihydro-2H-benzo[c]pyrido[3,4-e]azepin-5-yl)-N-ethylacetamide]", "values": [{"measurement": "IC50", "setting": "BRD4-BD1", "value": 2, "unit": "nM"}, {"measurement": "EC50", "setting": "AML cell line MV4-11", "value": 8, "unit": "nM"}]}, {"compound": "CCOC(=O)CC1N=C(c2c(F)cccc2F)c2cc(OC)ccc2-c2cn(C)c(=O)cc21", "note": "(racemic) [Compound 23, ±Ethyl-2-(7-(2,6-difluorophenyl)-9-methoxy-2-methyl-3-oxo-3,5-dihydro-2H-benzo[c]pyrido[3,4-e]azepin-5-yl)acetate]", "values": [{"measurement": "IC50", "setting": "BRD4-BD1", "value": 1, "unit": "nM"}, {"measurement": "EC50", "setting": "AML cell line MV4-11", "value": 5, "unit": "nM"}]}, {"compound": "CCNC(=O)CC1N=C(c2ccccn2)c2cc(OC)ccc2-c2cn(C)c(=O)cc21", "note": "(racemic) [Compound 27, ±2-(9-methoxy-2-methyl-3-oxo-7-(pyridin-2-yl)-3,5-dihydro-2H-benzo[c]pyrido[3,4-e]azepin-5-yl)-N-ethylacetamide]", "values": [{"measurement": "IC50", "setting": "BRD4-BD1", "value": 4.4, "unit": "nM"}, {"measurement": "EC50", "setting": "AML cell line MV4-11", "value": 112, "unit": "nM"}]}, {"compound": "CCOC(=O)CC1N=C(C)c2cc(OC)ccc2-c2cn(C)c(=O)cc21", "note": "(racemic) [Compound 19, ±Ethyl-2-(9-methoxy-2,7-dimethyl-3-oxo-3,5-dihydro-2H-benzo[c]pyrido[3,4-e]azepin-5-yl)acetate]", "values": [{"measurement": "IC50", "setting": "BRD4-BD1", "value": 176, "unit": "nM"}]}, {"compound": "CCNC(=O)C[C@H]1O[C@H](c2ccc(Cl)cc2)c2cc(OC)ccc2-c2cn(C)c(=O)cc21", "note": "[Compound 8F, 2-((5R,7R)-7-(4-chlorophenyl)-9-methoxy-2-methyl-3-oxo-2,3,5,7-tetrahydrobenzo[5,6]oxepino[4,3-c]pyridin-5-yl)-N-ethylacetamide]", "values": [{"measurement": "IC50", "setting": "BRD4-BD1", "value": 12, "unit": "nM"}, {"measurement": "EC50", "setting": "AML cell line MV4-11", "value": 24, "unit": "nM"}]}, {"compound": "CCOC(=O)CC1OC(c2ccc(Cl)cc2)c2cc(OC)ccc2-c2cn(C)c(=O)cc21", "note": "(racemic) [Compound 1, ±Ethyl 2-(-7-(4-chlorophenyl)-9-methoxy-2-methyl-3-oxo-2,3,5,7-tetrahydrobenzo[5,6]oxepino[4,3-c]pyridin-5-yl)acetate]", "values": [{"measurement": "IC50", "setting": "BRD4-BD1", "value": 24, "unit": "nM"}]}, {"compound": "COc1ccc2c(c1)C(c1ccc(Cl)cc1)=NC(CC(N)=O)c1cc(=O)n(C)cc1-2", "note": "(racemic) [Compound 28, ±2-(7-(4-chlorophenyl)-9-methoxy-2-methyl-3-oxo-3,5-dihydro-2H-benzo[c]pyrido[3,4-e]azepin-5-yl)acetamide]", "values": [{"measurement": "IC50", "setting": "BRD4-BD1", "value": 36, "unit": "nM"}, {"measurement": "EC50", "setting": "AML cell line MV4-11", "value": 326, "unit": "nM"}]}, {"compound": "CCNC(=O)CC1N=C(c2ccc(Cl)cc2C)c2cc(OC)ccc2-c2cn(C)c(=O)cc21", "note": "(racemic) [Compound 39, ±2-(7-(4-chloro,2-methylphenyl)-9-methoxy-2-methyl-3-oxo-3,5-dihydro-2H-benzo[c]pyrido[3,4-e]azepin-5-yl)-N-ethylacetamide]", "values": [{"measurement": "IC50", "setting": "BRD4-BD1", "value": 4, "unit": "nM"}, {"measurement": "EC50", "setting": "AML cell line MV4-11", "value": 8, "unit": "nM"}]}, {"compound": "CCOC(=O)CC1N=C(C(F)(F)F)c2cc(OC)ccc2-c2cn(C)c(=O)cc21", "note": "(racemic) [Compound 18, ±Ethyl-2-(9-methoxy-2-methyl-3-oxo-7-(trifluoromethyl)-3,5-dihydro-2H-benzo[c]pyrido[3,4-e]azepin-5-yl)acetate]", "values": [{"measurement": "IC50", "setting": "BRD4-BD1", "value": 122, "unit": "nM"}]}, {"compound": "CCOC(=O)CC1N=C(c2ccc(Cl)cc2)c2cc(OC)ccc2-c2cn(C)c(=O)cc21", "note": "(racemic) [Compound 14, ±-Ethyl-2-(7-(4-chlorophenyl)-9-methoxy-2-methyl-3-oxo-3,5-dihydro-2H-benzo[c]pyrido[3,4-e]azepin-5-yl)acetate]", "values": [{"measurement": "EC50", "setting": "AML cell line MV4-11", "value": 2, "unit": "nM"}]}, {"compound": "CCNC(=O)CC1N=C(c2ccc(Cl)cc2)c2cc(OC)ccc2-c2cn(C)c(=O)cc21", "note": "(racemic) [Compound 25, ±2-(7-(4-chlorophenyl)-9-methoxy-2-methyl-3-oxo-3,5dihydro-2H-benzo[c]pyrido[3,4-e]azepin-5-yl)-N-ethylacetamide]", "values": [{"measurement": "EC50", "setting": "AML cell line MV4-11", "value": 3, "unit": "nM"}]}, {"compound": "CCNC(=O)CC1N=C(CC2CC2)c2cc(OC)ccc2-c2cn(C)c(=O)cc21", "note": "(racemic) [Compound 30, ±2-(7-(cyclopropylmethyl)-9-methoxy-2-methyl-3-oxo-3,5-dihydro-2H-benzo[c]pyrido[3,4-e]azepin-5-yl)-N-ethylacetamide]", "values": [{"measurement": "IC50", "setting": "BRD4-BD1", "value": 10, "unit": "nM"}, {"measurement": "EC50", "setting": "AML cell line MV4-11", "value": 118, "unit": "nM"}]}, {"compound": "CCNC(=O)CC1N=C(C(F)(F)F)c2cc(OC)ccc2-c2cn(C)c(=O)cc21", "note": "(racemic) [Compound 32, ±2-(9-methoxy-2-methyl-3-oxo-7-(trifluoromethyl)-3,5-dihydro-2H-benzo[c]pyrido[3,4-e]azepin-5-yl)-N-ethylacetamide]", "values": [{"measurement": "IC50", "setting": "BRD4-BD1", "value": 49, "unit": "nM"}, {"measurement": "EC50", "setting": "AML cell line MV4-11", "value": 108, "unit": "nM"}]}, {"compound": "CCNC(=O)CC1N=C(c2ccc(Cl)cc2)c2cc(F)ccc2-c2cn(C)c(=O)cc21", "note": "(racemic) [Compound 37, ±2-(7-(4-chlorophenyl)-9-fluoro-2-methyl-3-oxo-3,5-dihydro-2H-benzo[c]pyrido[3,4-e]azepin-5-yl)-N-ethylacetamide]", "values": [{"measurement": "IC50", "setting": "BRD4-BD1", "value": 4, "unit": "nM"}, {"measurement": "EC50", "setting": "AML cell line MV4-11", "value": 28, "unit": "nM"}]}, {"compound": "CCNC(=O)CC1N=C(c2c(F)cccc2F)c2cc(OC)ccc2-c2cn(C)c(=O)cc21", "note": "(racemic) [Compound 38, ±2-(7-(2,6-difluorophenyl)-9-methoxy-2-methyl-3-oxo-3,5-dihydro-2H-benzo[c]pyrido[3,4-e]azepin-5-yl)-N-ethylacetamide]", "values": [{"measurement": "IC50", "setting": "BRD4-BD1", "value": "< 0.5", "unit": "nM"}, {"measurement": "EC50", "setting": "AML cell line MV4-11", "value": 13, "unit": "nM"}]}]}
